# ChEMBL document CHEMBL4414672, “Synthesis of certain benzothieno[3,2-d]pyrimidine derivatives as a selective SIRT2 inhibitors” (Eur J Med Chem, 2020)
# What was measured:
# LOX IMVI = test: Growth inhibition of human LOXIMVI cells at 10^-5 M incubated for 48 hrs by sulforhodamine B assay; format: functional; details: read-out: GI
# SN12C = test: Growth inhibition of human SN12C cells at 10^-5 M incubated for 48 hrs by sulforhodamine B assay; format: functional; details: read-out: GI
# SNB-75 = test: Growth inhibition of human SNB75 cells at 10^-5 M incubated for 48 hrs by sulforhodamine B assay; format: functional; details: SNB-75, 48 h, read-out: GI
# HCC 2998 = test: Growth inhibition of human HCC2998 cells at 10^-5 M incubated for 48 hrs by sulforhodamine B assay; format: functional; details: HCC 2998, 48 h, read-out: GI
# UACC-257 = test: Growth inhibition of human UACC257 cells at 10^-5 M incubated for 48 hrs by sulforhodamine B assay; format: functional; details: UACC-257, 48 h, read-out: GI
# NCI-H460 = test: Growth inhibition of human NCI-H460 cells at 10^-5 M incubated for 48 hrs by sulforhodamine B assay; format: functional; details: NCI-H460, 48 h, read-out: GI
# HCT-15 = test: Growth inhibition of human HCT15 cells at 10^-5 M incubated for 48 hrs by sulforhodamine B assay; format: functional; details: HCT-15, 48 h, read-out: GI
# UO-31 = test: Cytotoxicity against human UO31 cells assessed as reduction in cell viability after 24 hrs by MTT assay; format: functional, cell-based; details: UO-31, 24 h
# COLO 205 = test: Growth inhibition of human COLO205 cells at 10^-5 M incubated for 48 hrs by sulforhodamine B assay; format: functional; details: COLO 205, 48 h, read-out: GI
# SK-MEL-5 = test: Growth inhibition of human SK-MEL-5 cells at 10^-5 M incubated for 48 hrs by sulforhodamine B assay; format: functional; details: SK-MEL-5, 48 h, read-out: GI
# SNB-19 = test: Growth inhibition of human SNB19 cells at 10^-5 M incubated for 48 hrs by sulforhodamine B assay; format: functional; details: SNB-19, 48 h, read-out: GI
# PC-3 = test: Growth inhibition of human PC3 cells at 10^-5 M incubated for 48 hrs by sulforhodamine B assay; format: functional; details: PC-3, 48 h, read-out: GI
# SK-OV-3 = test: Growth inhibition of human SKOV3 cells at 10^-5 M incubated for 48 hrs by sulforhodamine B assay; format: functional; details: SK-OV-3, 48 h, read-out: GI
# NCI/ADR-RES = test: Growth inhibition of human NCI/ADR-RES cells at 10^-5 M incubated for 48 hrs by sulforhodamine B assay; format: functional; details: read-out: GI
# SF-539 = test: Growth inhibition of human SF539 cells at 10^-5 M incubated for 48 hrs by sulforhodamine B assay; format: functional; details: SF-539, 48 h, read-out: GI
# U-251 = test: Growth inhibition of human U251 cells at 10^-5 M incubated for 48 hrs by sulforhodamine B assay; format: functional; details: U-251, 48 h, read-out: GI
# SK-MEL-2 = test: Growth inhibition of human SK-MEL-2 cells at 10^-5 M incubated for 48 hrs by sulforhodamine B assay; format: functional; details: SK-MEL-2, 48 h, read-out: GI
# UACC-62 = test: Growth inhibition of human UACC62 cells at 10^-5 M incubated for 48 hrs by sulforhodamine B assay; format: functional; details: UACC-62, 48 h, read-out: GI
# MCF7 = test: Cytotoxicity against human MCF7 cells assessed as reduction in cell viability after 24 hrs by MTT assay; format: functional, cell-based; details: MCF7, 24 h
# 786-0 = test: Growth inhibition of human 786-0 cells at 10^-5 M incubated for 48 hrs by sulforhodamine B assay; format: functional; details: 786-0, 48 h, read-out: GI
# OVCAR-5 = test: Growth inhibition of human OVCAR5 cells at 10^-5 M incubated for 48 hrs by sulforhodamine B assay; format: functional; details: OVCAR-5, 48 h, read-out: GI
# RXF 393 = test: Growth inhibition of human RXF393 cells at 10^-5 M incubated for 48 hrs by sulforhodamine B assay; format: functional; details: RXF 393, 48 h, read-out: GI
Compound,inhibition of growth at 10 µM (LOX IMVI) [%],inhibition of growth at 10 µM (SN12C) [%],inhibition of growth at 10 µM (SNB-75) [%],inhibition of growth at 10 µM (HCC 2998) [%],inhibition of growth at 10 µM (UACC-257) [%],inhibition of growth at 10 µM (NCI-H460) [%],inhibition of growth at 10 µM (HCT-15) [%],inhibition of growth at 10 µM (COLO 205) [%],inhibition of growth at 10 µM (SK-MEL-5) [%],inhibition of growth at 10 µM (SNB-19) [%],inhibition of growth at 10 µM (PC-3) [%],inhibition of growth at 10 µM (SK-OV-3) [%],inhibition of growth at 10 µM (NCI/ADR-RES) [%],inhibition of growth at 10 µM (SF-539) [%],inhibition of growth at 10 µM (U-251) [%],inhibition of growth at 10 µM (SK-MEL-2) [%],inhibition of growth at 10 µM (UACC-62) [%],inhibition of growth at 10 µM (786-0) [%],inhibition of growth at 10 µM (OVCAR-5) [%],inhibition of growth at 10 µM (RXF 393) [%],also measured
O=C1/C(=C\c2ccc3ccccc3c2)Sc2ccc(Cl)cc21,1.77,6.38,-0.33,-27.2,-3.36,0.3,-4.32,-10.7,5.71,-8.84,11.6,-3.03,2.51,-8.09,-1.36,-0.66,21.7,0.49,-2.92,-2.24,IC50 (UO-31): 39.9 µg/mL; IC50 (MCF7): 43.9 µg/mL
O=C1SC2=Nc3c(sc4ccc(Cl)cc34)C(c3ccc4ccccc4c3)N2C1=O (stereo not drawn),1.85,13.2,5.78,-27.7,-0.63,4.51,7.44,-2.01,5.6,2.61,17.1,9.71,4.45,5.81,-1.96,14.1,34.2,2.6,-1.12,3.64,IC50 (UO-31): 46.7 µg/mL; IC50 (MCF7): 23.3 µg/mL
NNC1=Nc2c(sc3ccc(Cl)cc23)C(c2cccc([N+](=O)[O-])c2)N1 (stereo not drawn),2.22,1.02,10.7,-1.26,-0.19,1.16,-5.02,-1.26,3.86,-1.03,15.2,5.88,-3.64,-1.12,-3.56,-8.15,4.25,-3.52,-5.19,-16.8,IC50 (UO-31): 18.3 µg/mL; IC50 (MCF7): 16.4 µg/mL
CCOC(=O)CSC1=Nc2c(sc3ccc(Cl)cc23)C(c2cccc([N+](=O)[O-])c2)N1 (stereo not drawn),0.14,2.9,11.3,-16.9,2.03,-0.74,-2.2,-3.41,3.95,-0.3,9.33,8.27,1.65,-3.84,3.38,-6.23,6.62,-2.24,-1.2,-12.8,IC50 (UO-31): 11.8 µg/mL; IC50 (MCF7): 22.1 µg/mL
N=C1Nc2c(sc3ccc(Cl)cc23)C(c2ccc3ccccc3c2)N1 (stereo not drawn),6.47,-25.1,0.66,10.9,8.66,13.2,3.37,-6.53,-0.53,18.1,-10,-0.13,1.25,-2.62,-0.54,-16.2,6,5.33,-3.77,0.36,
N=C1Nc2c(sc3ccc(Cl)cc23)C(c2cccc([N+](=O)[O-])c2)N1 (stereo not drawn),-9.93,-19.7,-4.54,9.09,9.45,14.7,-4.21,-31,-2.55,16.8,-10.1,-1.73,8.91,1.35,0.68,-19.5,23.1,16.5,-1.04,4.42,
O=[N+]([O-])c1cccc(C2NC(=S)Nc3c2sc2ccc(Cl)cc32)c1 (stereo not drawn),7.83,7.47,24.4,-13.8,-0.4,11.4,-0.11,-3.44,4.44,8.69,15.4,10.5,-1.46,5.63,4.4,-9.95,8.94,1.48,0.45,-9.88,
O=C1/C(=C\c2cccc(Br)c2)Sc2ccc(Cl)cc21,2.63,-0.02,2.14,-3.41,-6.58,-7.98,-10.9,-6.12,1.63,-6.33,-1.54,5.77,-2.33,-3.89,-3.45,-5.68,2.69,-3.61,-9.67,-5.49,
O=C1/C(=C\c2cccc([N+](=O)[O-])c2)Sc2ccc(Cl)cc21,8.68,-12.1,12.3,-36.5,-6.4,-5.14,6.13,-6.01,8.13,-6.12,-3.94,5.38,7.92,-3.16,13.8,12.4,29.5,-1.44,-1.89,15.7,
O=C1Nc2c(sc3ccc(Cl)cc23)C(c2ccc3ccccc3c2)N1 (stereo not drawn),-0.62,10.9,21.5,-14.6,14.5,2.77,1.48,-6.54,1.82,2.49,7.25,16.8,-2.33,3.67,1.75,0.12,-1.09,6.06,8.06,-10.1,
